Test results taken from patent US20250179059A1 (The Regents of the University of California, priority 2021, published 2025).

What was measured:
[1] = target: T1, human BRD4 bromodomain II (Homo sapiens, UniProt O60885); experiment: Bromodomain binding assay (AlphaScreen), BRD4 BDII; conditions: AlphaScreen assay, Table C2; read-out: BRD4 BDII IC50
T1 construct: human BRD4 bromodomain II [based on Genbank NM_058243, residues 349-460]; host or cells: E. coli
Outline: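 First, His6-tagged BRD4 bromodomain (BDI residues 44-170 or BDII residues 349-460) is incubated with compound for 30 min at room temperature. Next the biotinylated H4 peptide is added for 30 min, then donor and acceptor beads, with 60 min in the dark before AlphaScreen reading and IC50 fitting.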

[2] = tested on: human SKM-1 acute myeloid leukemia cells; experiment: SKM-1 antiproliferation cell-based assay (ATPlite); conditions: Homo sapiens, SKM-1, 96 h, SKM-1 antiproliferation assay, 4 days, Table C2
Outline: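 Log-phase cells in RPMI 1640/15% FBS were seeded at 34722 cells/mL and exposed for 4 days to nine-concentration DMSO serial dilutions in triplicate. Viability was read as ATP luminescence (ATPlite 1step), and IC50 values came from variable-slope non-linear regression.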

Row | SMILES | IC50 [1] [nM] | GI50 [2] [nM]
1 | CC(C)N1CCN(c2cc(-c3cc(F)cc(-c4ccc(-n5ccn(C)c5=O)c(Cl)c4)c3O)cnc2Cl)CC1 [Example 787, 1-(3-chloro-3′-(6-chloro-5-(4-isopropylpiperazin-1-yl)pyridin-3-yl)-5′-fluoro-2′-hydroxy-[1,1′-biphenyl]-4-yl)-3-methyl-1H-imidazol-2(3H)-one] | 0.01 to 1 | 0.3 to 30
2 | Cn1ccn(-c2ccc(-c3cc(F)cc(-c4cnc(Cl)c(N5CCN(C(C)(C)C)CC5)c4)c3O)cc2Cl)c1=O [Example 789, 1-(3′-(5-(4-(tert-butyl)piperazin-1-yl)-6-chloropyridin-3-yl)-3-chloro-5′-fluoro-2′-hydroxy-[1,1′-biphenyl]-4-yl)-3-methyl-1H-imidazol-2(3H)-one] | 1 to 10 | 0.3 to 30
3 | Cc1ncc(-c2cc(F)cc(-c3ccc(-n4ccn(C)c4=O)c(Cl)c3)c2O)cc1N1CCN(C(C)(C)C)CC1 [Example 791, 1-(3′-(5-(4-(tert-butyl)piperazin-1-yl)-6-methylpyridin-3-yl)-3-chloro-5′-fluoro-2′-hydroxy-[1,1′-biphenyl]-4-yl)-3-methyl-1,3-dihydro-2H-imidazol-2-one] | 0.01 to 1 | 0.3 to 30
4 | CC(=O)N[C@]1(C)CCN(c2cncc(-c3cc(F)cc(-c4ccc(-n5ccn(C)c5=O)c(Cl)c4)c3O)c2)C1 [Example 793, (R)-N-(1-(5-(3′-chloro-5-fluoro-2-hydroxy-4′-(3-methyl-2-oxo-2,3-dihydro-1H-imidazol-1-yl)-[1,1′-biphenyl]-3-yl)pyridin-3-yl)-3-methylpyrrolidin-3-yl)acetamide] | 0.01 to 1 | 0.3 to 30
5 | CC(=O)NC(C)(C)C#Cc1cccc(-c2cc(F)cc(-c3ccc(-n4ccn(C)c4=O)c(Cl)c3)c2O)c1 [Example 795, N-(4-(3″-chloro-5′-fluoro-2′-hydroxy-4″-(3-methyl-2-oxo-2,3-dihydro-1H-imidazol-1-yl)-[1,1′:3′,1″-terphenyl]-3-yl)-2-methylbut-3-yn-2-yl)acetamide] | > 100 | 300 to 3000
6 | CC(C)N1CCN(c2cc(-c3cc(F)cc(-c4ccc(-n5ccn(C)c5=O)c(Cl)c4)c3O)cnn2)CC1 [Example 797, 1-(3-chloro-5′-fluoro-2′-hydroxy-3′-(6-(4-isopropylpiperazin-1-yl)pyridazin-4-yl)-[1,1′-biphenyl]-4-yl)-3-methyl-1H-imidazol-2(3H)-one] | 0.01 to 1 | 0.3 to 30
7 | Cn1ccn(-c2ccc(-c3cc(F)cc(-c4cnnc(N5CCN(C(C)(C)C)CC5)c4)c3O)cc2Cl)c1=O [Example 798, 1-(3′-(6-(4-(tert-butyl)piperazin-1-yl)pyridazin-4-yl)-3-chloro-5′-fluoro-2′-hydroxy-[1,1′-biphenyl]-4-yl)-3-methyl-1H-imidazol-2(3H)-one] | 0.01 to 1 | 0.3 to 30
8 | Cc1ccc(-c2cc(F)cc(-c3ccc(-n4ccn(C)c4=O)c(Cl)c3)c2O)cc1N1CCN(C(C)(C)C)CC1 [Example 800, 1-(3″-(4-(tert-butyl)piperazin-1-yl)-3-chloro-5′-fluoro-2′-hydroxy-4″-methyl-[1,1′:3′,1″-terphenyl]-4-yl)-3-methyl-1H-imidazol-2(3H)-one] | 0.01 to 1 | 0.3 to 30

More lines, now with the values ahead:

Row | IC50 [1] [nM] | GI50 [2] [nM] | SMILES
9 | 1 to 10 | 30 to 300 | Cn1ccn(-c2ccc(-c3cc(F)cc(-c4ccnc(N5CCC(O)(C(F)(F)F)C5)c4)c3O)cc2Cl)c1=O (stereo not drawn) [Example 784, 1-(3-chloro-5′-fluoro-2′-hydroxy-3′-(2-(3-hydroxy-3-(trifluoromethyl)pyrrolidin-1-yl)pyridin-4-yl)-[1,1′-biphenyl]-4-yl)-3-methyl-1H-imidazol-2(3H)-one]
10 | 1 to 10 | 30 to 300 | Cn1ccn(-c2ccc(-c3cc(F)cc(-c4ccnc(N5CC6CCC(C5)C6(C)O)c4)c3O)cc2Cl)c1=O (stereo not drawn) [Example 785, 1-(3-chloro-5′-fluoro-2′-hydroxy-3′-(2-(8-hydroxy-8-methyl-3-azabicyclo[3.2.1]octan-3-yl)pyridin-4-yl)-[1,1′-biphenyl]-4-yl)-3-methyl-1H-imidazol-2(3H)-one]
11 | 1 to 10 | 30 to 300 | Cn1ccn(-c2ccc(-c3cc(F)cc(-c4ccnc(N5C[C@H](O)[C@@H](F)C5)c4)c3O)cc2Cl)c1=O [Example 786, 1-(3-chloro-5′-fluoro-3′-(2-((3S,4S)-3-fluoro-4-hydroxypyrrolidin-1-yl)pyridin-4-yl)-2′-hydroxy-[1,1′-biphenyl]-4-yl)-3-methyl-1H-imidazol-2(3H)-one]
12 | 10 to 100 | 300 to 3000 | CN(C)C1(c2cccc(-c3cc(F)cc(-c4ccc(-n5ccn(C)c5=O)c(Cl)c4)c3O)c2)CC1 [Example 788, 1-(3-chloro-3″-(1-(dimethylamino)cyclopropyl)-5′-fluoro-2′-hydroxy-[1,1′:3′,1″-terphenyl]-4-yl)-3-methyl-1H-imidazol-2(3H)-one]
13 | 0.01 to 1 | 0.3 to 30 | CC(=O)NC1(C)CCN(c2cc(-c3cc(F)cc(-c4ccc(-n5ccn(C)c5=O)c(Cl)c4)c3O)ccn2)CC1 [Example 790, N-(1-(4-(3′-chloro-5-fluoro-2-hydroxy-4′-(3-methyl-2-oxo-2,3-dihydro-1H-imidazol-1-yl)-[1,1′-biphenyl]-3-yl)pyridin-2-yl)-4-methylpiperidin-4-yl)acetamide]
14 | > 100 | 300 to 3000 | Cn1ccn(-c2ccc(-c3cc(F)cc(-c4ccnc(N5CCC(C)(NS(C)(=O)=O)C5)c4)c3O)cc2Cl)c1=O (stereo not drawn) [Example 792, N-(1-(4-(3′-chloro-5-fluoro-2-hydroxy-4′-(3-methyl-2-oxo-2,3-dihydro-1H-imidazol-1-yl)-[1,1′-biphenyl]-3-yl)pyridin-2-yl)-3-methylpyrrolidin-3-yl)methanesulfonamide]
15 | 10 to 100 | 300 to 3000 | CC(=O)N(C)C1(c2cccc(-c3cc(F)cc(-c4ccc(-n5ccn(C)c5=O)c(Cl)c4)c3O)c2)CC1 [Example 794, N-(1-(3″-chloro-5′-fluoro-2′-hydroxy-4″-(3-methyl-2-oxo-2,3-dihydro-1H-imidazol-1-yl)-[1,1′:3′,1″-terphenyl]-3-yl)cyclopropyl)-N-methylacetamide]
16 | 1 to 10 | 30 to 300 | Cn1ccn(-c2ccc(-c3cc(F)cc(-c4ccc5ncc(C(C)(C)O)cc5c4)c3O)cc2Cl)c1=O [Example 796, 1-(3-chloro-5′-fluoro-2′-hydroxy-3′-(3-(2-hydroxypropan-2-yl)quinolin-6-yl)-[1,1′-biphenyl]-4-yl)-3-methyl-1H-imidazol-2(3H)-one]
17 | 0.01 to 1 | 30 to 300 | CNC1(c2cccc(-c3cc(F)cc(-c4ccc(-n5ccn(C)c5=O)c(Cl)c4)c3O)c2)CC1 [Example 799, 1-(3-chloro-5′-fluoro-2′-hydroxy-3″-(1-(methylamino)cyclopropyl)-[1,1′:3′,1″-terphenyl]-4-yl)-3-methyl-1H-imidazol-2(3H)-one]
18 | 1 to 10 | 30 to 300 | Cn1ccn(-c2ccc(-c3cc(F)cc(-c4ccc5ccc(C(C)(C)O)cc5c4)c3O)cc2Cl)c1=O [Example 801, 1-(3-chloro-5′-fluoro-2′-hydroxy-3′-(7-(2-hydroxypropan-2-yl)naphthalen-2-yl)-[1,1′-biphenyl]-4-yl)-3-methyl-1H-imidazol-2(3H)-one]
